Results: ChEMBL document CHEMBL1201862, “PubChem BioAssay data set” (2004)
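96-well plates; 48 h exposure; 5 concentrations. Endpoints by linear interpolation between flanking doses. Not reached: highest tested concentration assigned. The concentration for 50% growth inhibition is given as GI50.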 Active and inactive are the calls of the source. Cut-off read from the data, not from the text of the source: active = GI50 up to about 1.1 µM and inactive = higher.

How the values were obtained:
Assay in all cases: NCI anticancer screen, dose series, 48 h
HCT-116 = tested on: HCT-116
HOP-92 = tested on: HOP-92
MDA-MB-231 = tested on: MDA-MB-231
OVCAR-4 = tested on: OVCAR-4
UO-31 = tested on: UO-31
EKVX = tested on: EKVX
KM12 = tested on: KM12
Malme-3M = tested on: Malme-3M
MDA-MB-435 = tested on: MDA-MB-435
Hs-578T = tested on: Hs-578T
A498 = tested on: A498
DU-145 = tested on: DU-145
MOLT-4 = tested on: MOLT-4
HOP-62 = tested on: HOP-62
SK-OV-3 = tested on: SK-OV-3
RPMI-8226 = tested on: RPMI-8226
NCI-H460 = tested on: NCI-H460
UACC-257 = tested on: UACC-257
HL-60 = tested on: HL-60

Structure (SMILES)	GI50 (HCT-116)	GI50 (HOP-92)	GI50 (MDA-MB-231)	GI50 (OVCAR-4)	GI50 (UO-31)	GI50 (EKVX)	GI50 (KM12)	GI50 (Malme-3M)	GI50 (MDA-MB-435)	GI50 (Hs-578T)	GI50 (A498)	GI50 (DU-145)	GI50 (MOLT-4)	GI50 (HOP-62)	GI50 (SK-OV-3)	GI50 (RPMI-8226)	GI50 (NCI-H460)	GI50 (UACC-257)	GI50 (HL-60)
CC(C)=CCc1c2c(c3occ(-c4ccc(O)c(O)c4)c(=O)c3c1O)C=CC(C)(C)O2 [POMIFERIN]	1.85 µM (inactive)	2.07 µM (inactive)	1.39 µM (inactive)	1.59 µM (inactive)	1.54 µM (inactive)	4.86 µM (inactive)	1.72 µM (inactive)	1.14 µM (inactive)	1.75 µM (inactive)	1.22 µM (inactive)	15.3 µM (inactive)	3.47 µM (inactive)	0.553 µM (active)	1.89 µM (inactive)	6.71 µM (inactive)	1.67 µM (inactive)	1.64 µM (inactive)	1.91 µM (inactive)	
NNC(=O)CSc1nc2ccccc2c(=O)n1N	31.6 µM (inactive)	22.5 µM (inactive)	17.3 µM (inactive)	> 100 µM (inactive)	> 100 µM (inactive)	53.8 µM (inactive)	> 100 µM (inactive)	46.7 µM (inactive)	> 100 µM (inactive)	29.7 µM (inactive)	> 100 µM (inactive)	> 100 µM (inactive)	> 100 µM (inactive)			> 100 µM (inactive)	57.1 µM (inactive)	> 100 µM (inactive)	
Cc1nc(N)c(N2CCN(S(=O)(=O)N(Cc3ccccc3)Cc3ccccc3)CC2)c(O)n1	28.1 µM (inactive)		62.4 µM (inactive)	22.2 µM (inactive)	> 100 µM (inactive)	58.6 µM (inactive)	56.9 µM (inactive)	25.1 µM (inactive)	38.5 µM (inactive)	33.3 µM (inactive)	> 10 µM (inactive)	20.7 µM (inactive)	> 100 µM (inactive)	31.6 µM (inactive)		> 100 µM (inactive)	40.6 µM (inactive)	25.4 µM (inactive)	57.7 µM (inactive)
Cc1cc2c(cc1C)[n+]([O-])c(C(F)(F)F)c(C(=O)c1ccccc1)[n+]2[O-]	2.24 µM (inactive)	0.167 µM (active)	2.3 µM (inactive)		0.484 µM (active)	0.785 µM (active)	1.85 µM (inactive)	2.39 µM (inactive)	2.69 µM (inactive)	2.58 µM (inactive)	4.44 µM (inactive)	1.62 µM (inactive)	1.69 µM (inactive)	0.299 µM (active)	4 µM (inactive)	1.24 µM (inactive)	1.26 µM (inactive)	3.02 µM (inactive)	1.69 µM (inactive)
CC1=Cc2ccc(C)cc2C(=O)C1=O	5.47 µM (inactive)	6.18 µM (inactive)	20.6 µM (inactive)	4.94 µM (inactive)	1.64 µM (inactive)	18.3 µM (inactive)	17.6 µM (inactive)		2.06 µM (inactive)	13.9 µM (inactive)	22.4 µM (inactive)	16.8 µM (inactive)	0.605 µM (active)	21.3 µM (inactive)	13.9 µM (inactive)	2.16 µM (inactive)	19.8 µM (inactive)	5.89 µM (inactive)	1 µM (active)
CC(C)OC(=O)c1ccc(NCC2=CC(=O)C=CC2=O)cc1Cl	19.3 µM (inactive)	4.89 µM (inactive)	16.4 µM (inactive)	12.7 µM (inactive)	3.29 µM (inactive)	15.4 µM (inactive)	13.5 µM (inactive)		9.44 µM (inactive)	23.3 µM (inactive)	16.3 µM (inactive)	18.3 µM (inactive)	3.72 µM (inactive)	32.5 µM (inactive)	31.4 µM (inactive)		19.2 µM (inactive)	16.1 µM (inactive)	0.904 µM (active)
COc1ccc(CC2C3=C(CCCC3)CCN2C)cc1 (stereo unspecified)	58.2 µM (inactive)		> 100 µM (inactive)	> 100 µM (inactive)	58.3 µM (inactive)	> 100 µM (inactive)	> 100 µM (inactive)	> 100 µM (inactive)	> 100 µM (inactive)	77.6 µM (inactive)	> 100 µM (inactive)	> 100 µM (inactive)	> 100 µM (inactive)	> 100 µM (inactive)	> 100 µM (inactive)	> 100 µM (inactive)	> 100 µM (inactive)	> 100 µM (inactive)	29.4 µM (inactive)
COc1cccc(C2CC(C)(O)Oc3cc4c(cc32)OCO4)c1 (stereo unspecified)	9.44 µM (inactive)	26.7 µM (inactive)	24.1 µM (inactive)	24.2 µM (inactive)	23.3 µM (inactive)	36.1 µM (inactive)	11.2 µM (inactive)	26.2 µM (inactive)	3.3 µM (inactive)	16.4 µM (inactive)		31.3 µM (inactive)	8.97 µM (inactive)	21.1 µM (inactive)	16.9 µM (inactive)	16.1 µM (inactive)	16.1 µM (inactive)	37.6 µM (inactive)	17.2 µM (inactive)
COCN1C(=O)[C@@H]2CCCN2C(=O)c2ccc([N+](=O)[O-])cc21	> 100 µM (inactive)	> 100 µM (inactive)	> 100 µM (inactive)	> 100 µM (inactive)	> 100 µM (inactive)	> 100 µM (inactive)	> 100 µM (inactive)		> 100 µM (inactive)	> 100 µM (inactive)	> 100 µM (inactive)	> 100 µM (inactive)	> 100 µM (inactive)	> 100 µM (inactive)	> 100 µM (inactive)	> 100 µM (inactive)	> 100 µM (inactive)	> 100 µM (inactive)	87.5 µM (inactive)
Sc1nnc(Cc2ccc(Cl)cc2)[nH]1	51.4 µM (inactive)	16.2 µM (inactive)	42.3 µM (inactive)	71.9 µM (inactive)	32.4 µM (inactive)	47.1 µM (inactive)	43.2 µM (inactive)	29.1 µM (inactive)	88.3 µM (inactive)	16.4 µM (inactive)	57.4 µM (inactive)	67 µM (inactive)	50.2 µM (inactive)	93.1 µM (inactive)	68.5 µM (inactive)		50.8 µM (inactive)	60.5 µM (inactive)	
CNc1nc2c(C)ccc3nc(N(C)C)nc-3c2n1C	> 10 µM (inactive)	> 10 µM (inactive)	> 10 µM (inactive)	> 10 µM (inactive)	> 10 µM (inactive)	> 10 µM (inactive)	> 10 µM (inactive)	> 10 µM (inactive)	> 10 µM (inactive)	> 10 µM (inactive)	> 10 µM (inactive)	> 10 µM (inactive)	> 10 µM (inactive)	> 10 µM (inactive)	> 10 µM (inactive)	> 10 µM (inactive)	> 10 µM (inactive)	> 10 µM (inactive)	
COC(CN(C)C(=S)Nc1cccc2ccccc12)OC	> 10 µM (inactive)		> 10 µM (inactive)	> 10 µM (inactive)	> 10 µM (inactive)	> 10 µM (inactive)	> 10 µM (inactive)	> 10 µM (inactive)	> 10 µM (inactive)	> 10 µM (inactive)	> 10 µM (inactive)	> 10 µM (inactive)	> 10 µM (inactive)	> 10 µM (inactive)	> 10 µM (inactive)	> 10 µM (inactive)	> 10 µM (inactive)	> 10 µM (inactive)	> 10 µM (inactive)
